Measurements reported in PubChem BioAssay AID2060486 (Molecular Pharmacology Branch, DTP, NCI, 2025).

Tested on: IGROV1 complex spheroids (HUVEC, MSC), viability % test/control
Assay: Anticancer human tumor IGROV1 cell line growth inhibition [GQUAD];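 further: spheroids exposed to compounds for 7 days before readout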;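 on viability, T/C: 100% = DMSO vehicle control viability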
Settings: for IC50: curve of first compound; for viability, T/C: stronger effect = lower value
Summary of the method: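 Multi-cell-type spheroids of tumor cells with HUVEC and mesenchymal stem cells, treated with drug combinations. Concentrations descend in half-log steps from near clinical Cmax, or from 10 microM where Cmax is unknown; viability read-out.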

[1] = second compound 0.0316 µM, first compound 0.0316 µM
[2] = second compound 0.0316 µM, first compound 0.1 µM
[3] = second compound 0.0316 µM, first compound 0.316 µM
[4] = second compound 0.0316 µM, first compound 1 µM
[5] = second compound 0.0316 µM, first compound 3.16 µM
[6] = second compound 0.0316 µM, first compound 10 µM
[7] = second compound 0.1 µM, first compound 0.0316 µM
[8] = second compound 0.1 µM, first compound 0.1 µM
[9] = second compound 0.1 µM, first compound 0.316 µM
[10] = second compound 0.1 µM, first compound 1 µM
[11] = second compound 0.1 µM, first compound 3.16 µM
[12] = second compound 0.1 µM, first compound 10 µM
[13] = second compound 0.316 µM, first compound 0.0316 µM
[14] = second compound 0.316 µM, first compound 0.1 µM
[15] = second compound 0.316 µM, first compound 0.316 µM
[16] = second compound 0.316 µM, first compound 1 µM
[17] = second compound 0.316 µM, first compound 3.16 µM
[18] = second compound 0.316 µM, first compound 10 µM
[19] = second compound 1 µM, first compound 0.0316 µM
[20] = second compound 1 µM, first compound 0.1 µM
[21] = second compound 1 µM, first compound 0.316 µM
[22] = second compound 1 µM, first compound 1 µM
[23] = second compound 1 µM, first compound 3.16 µM
[24] = second compound 1 µM, first compound 10 µM
[25] = second compound 3.16 µM, first compound 0.0316 µM
[26] = second compound 3.16 µM, first compound 0.1 µM
[27] = second compound 3.16 µM, first compound 0.316 µM
[28] = second compound 3.16 µM, first compound 1 µM
[29] = second compound 3.16 µM, first compound 3.16 µM
[30] = second compound 3.16 µM, first compound 10 µM
[31] = second compound 10 µM, first compound 0.0316 µM
[32] = second compound 10 µM, first compound 0.1 µM
[33] = second compound 10 µM, first compound 0.316 µM
[34] = second compound 10 µM, first compound 1 µM
[35] = second compound 10 µM, first compound 3.16 µM
[36] = second compound 10 µM, first compound 10 µM

Structure (SMILES): O=c1[nH]cc(F)c(=O)[nH]1 + Cc1cnc(CNC(=O)c2c(=O)c3ccc(N4CCCN(C)CC4)nc3n3c2sc2ccccc23)cn1
- IC50 (second compound 0.0316 µM): 4520 nM
- IC50 (second compound 0.1 µM): < 31.6 nM
- IC50 (second compound 0.316 µM): < 31.6 nM
- IC50 (second compound 1 µM): < 31.6 nM
- IC50 (second compound 3.16 µM): < 31.6 nM
- IC50 (second compound 10 µM): < 31.6 nM
- viability, T/C [1]: 69.8%
- viability, T/C [2]: 66.3%
- viability, T/C [3]: 51.5%
- viability, T/C [4]: 66.9%
- viability, T/C [5]: 63.7%
- viability, T/C [6]: 20.2%
- viability, T/C [7]: 39.9%
- viability, T/C [8]: 38.9%
- viability, T/C [9]: 41.9%
- viability, T/C [10]: 36.1%
- viability, T/C [11]: 35.7%
- viability, T/C [12]: 17.7%
- viability, T/C [13]: 27.9%
- viability, T/C [14]: 23.6%
- viability, T/C [15]: 29.5%
- viability, T/C [16]: 25.2%
- viability, T/C [17]: 25.8%
- viability, T/C [18]: 15.1%
- viability, T/C [19]: 15.6%
- viability, T/C [20]: 15.3%
- viability, T/C [21]: 17.3%
- viability, T/C [22]: 19%
- viability, T/C [23]: 20.4%
- viability, T/C [24]: 9.16%
- viability, T/C [25]: 11.3%
- viability, T/C [26]: 15.5%
- viability, T/C [27]: 14.1%
- viability, T/C [28]: 9.51%
- viability, T/C [29]: 12.9%
- viability, T/C [30]: 7.27%
- viability, T/C [31]: 11.2%
- viability, T/C [32]: 8.66%
- viability, T/C [33]: 10.8%
- viability, T/C [34]: 9.81%
- viability, T/C [35]: 9.32%
- viability, T/C [36]: 5.96%

Structure (SMILES): COc1ccc([C@@H](O)c2cc(-c3ncnc4cc(N5CCOCC5)ccc34)c(F)cc2Cl)nn1 + Cc1cnc(CNC(=O)c2c(=O)c3ccc(N4CCCN(C)CC4)nc3n3c2sc2ccccc23)cn1
- IC50 (second compound 0.0316 µM): 197 nM
- IC50 (second compound 0.1 µM): < 31.6 nM
- IC50 (second compound 0.316 µM): < 31.6 nM
- IC50 (second compound 1 µM): < 31.6 nM
- IC50 (second compound 3.16 µM): < 31.6 nM
- IC50 (second compound 10 µM): < 31.6 nM
- viability, T/C [1]: 62.4%
- viability, T/C [2]: 64.7%
- viability, T/C [3]: 40.7%
- viability, T/C [4]: 11.1%
- viability, T/C [5]: 5.18%
- viability, T/C [6]: 5.46%
- viability, T/C [7]: 30.9%
- viability, T/C [8]: 34.5%
- viability, T/C [9]: 18.7%
- viability, T/C [10]: 7.37%
- viability, T/C [11]: 4.79%
- viability, T/C [12]: 3.15%
- viability, T/C [13]: 25.7%
- viability, T/C [14]: 25.2%
- viability, T/C [15]: 14.1%
- viability, T/C [16]: 6.16%
- viability, T/C [17]: 4.16%
- viability, T/C [18]: 3.4%
- viability, T/C [19]: 19.7%
- viability, T/C [20]: 17.8%
- viability, T/C [21]: 16.1%
- viability, T/C [22]: 6.86%
- viability, T/C [23]: 4.58%
- viability, T/C [24]: 2.36%
- viability, T/C [25]: 12%
- viability, T/C [26]: 9.89%
- viability, T/C [27]: 8.1%
- viability, T/C [28]: 4.31%
- viability, T/C [29]: 3.47%
- viability, T/C [30]: 1.18%
- viability, T/C [31]: 9.31%
- viability, T/C [32]: 9.19%
- viability, T/C [33]: 9.26%
- viability, T/C [34]: 4.56%
- viability, T/C [35]: 2.94%
- viability, T/C [36]: 1.32%

Structure (SMILES): CC(C)n1c(=O)n(C)c2cnc3cc(F)c(-c4ccc(OCCCN5CCCCC5)nc4)cc3c21 + Cc1cnc(CNC(=O)c2c(=O)c3ccc(N4CCCN(C)CC4)nc3n3c2sc2ccccc23)cn1
- IC50 (second compound 0.0316 µM): < 31.6 nM
- IC50 (second compound 0.1 µM): < 31.6 nM
- IC50 (second compound 0.316 µM): < 31.6 nM
- IC50 (second compound 1 µM): < 31.6 nM
- IC50 (second compound 3.16 µM): < 31.6 nM
- IC50 (second compound 10 µM): < 31.6 nM
- viability, T/C [1]: 13.7%
- viability, T/C [2]: 11.3%
- viability, T/C [3]: 10.6%
- viability, T/C [4]: 11.4%
- viability, T/C [5]: 10.2%
- viability, T/C [6]: 11.2%
- viability, T/C [7]: 12.4%
- viability, T/C [8]: 12.1%
- viability, T/C [9]: 12.4%
- viability, T/C [10]: 10.7%
- viability, T/C [11]: 11.3%
- viability, T/C [12]: 7.45%
- viability, T/C [13]: 15.1%
- viability, T/C [14]: 11.4%
- viability, T/C [15]: 11.7%
- viability, T/C [16]: 11.4%
- viability, T/C [17]: 9.7%
- viability, T/C [18]: 8.1%
- viability, T/C [19]: 13%
- viability, T/C [20]: 12.8%
- viability, T/C [21]: 9.09%
- viability, T/C [22]: 9.18%
- viability, T/C [23]: 9.72%
- viability, T/C [24]: 7.74%
- viability, T/C [25]: 8.77%
- viability, T/C [26]: 9.43%
- viability, T/C [27]: 9.15%
- viability, T/C [28]: 11.1%
- viability, T/C [29]: 10.6%
- viability, T/C [30]: 6.66%
- viability, T/C [31]: 12.3%
- viability, T/C [32]: 7.9%
- viability, T/C [33]: 9.45%
- viability, T/C [34]: 9.57%
- viability, T/C [35]: 8.82%
- viability, T/C [36]: 9.01%

Structure (SMILES): Nc1ccn(C2OC(CO)C(O)C2(F)F)c(=O)n1 (stereo not drawn) + Cc1[nH]c2ccc(F)cc2c1-c1nc2c3cccnc3c3ncccc3c2[nH]1
- IC50 (second compound 0.0316 µM): < 31.6 nM
- IC50 (second compound 0.1 µM): < 31.6 nM
- IC50 (second compound 0.316 µM): < 31.6 nM
- IC50 (second compound 1 µM): < 31.6 nM
- IC50 (second compound 3.16 µM): < 31.6 nM
- IC50 (second compound 10 µM): < 31.6 nM
- viability, T/C [1]: 10.5%
- viability, T/C [2]: 6.29%
- viability, T/C [3]: 5.85%
- viability, T/C [4]: 6.52%
- viability, T/C [5]: 6.69%
- viability, T/C [6]: 5.57%
- viability, T/C [7]: 18%
- viability, T/C [8]: 6.64%
- viability, T/C [9]: 5.87%
- viability, T/C [10]: 5.31%
- viability, T/C [11]: 5.55%
- viability, T/C [12]: 6.59%
- viability, T/C [13]: 11.5%
- viability, T/C [14]: 6.38%
- viability, T/C [15]: 6.31%
- viability, T/C [16]: 6.72%
- viability, T/C [17]: 6.12%
- viability, T/C [18]: 5.22%
- viability, T/C [19]: 4.26%
- viability, T/C [20]: 5%
- viability, T/C [21]: 3.88%
- viability, T/C [22]: 3.77%
- viability, T/C [23]: 3.84%
- viability, T/C [24]: 3.25%
- viability, T/C [25]: 5.06%
- viability, T/C [26]: 4.43%
- viability, T/C [27]: 3.62%
- viability, T/C [28]: 4.5%
- viability, T/C [29]: 4.02%
- viability, T/C [30]: 2.81%
- viability, T/C [31]: 3.58%
- viability, T/C [32]: 4.69%
- viability, T/C [33]: 4.1%
- viability, T/C [34]: 4.26%
- viability, T/C [35]: 3.44%
- viability, T/C [36]: 2.86%
